Measurements reported in the NIST ThermoML archive (doi:10.1016/j.jct.2015.12.025).
Values joined by “and” are separate entries in the source; they are usually repeats but may differ in a detail not shown here. Equal values may be shown once.

Experiments:
[1] = 102 kPa, Liquid, Vibrating tube method
[2] = refractive index (Na D-line) (dimensionless); conditions: 102 kPa, Liquid, Standard Abbe refractometry
[3] = xn = mol fraction of the nth substance listed; conditions: 102 kPa, Liquid, Vibrating tube method
[4] = refractive index (Na D-line) (dimensionless); xn = mol fraction of the nth substance listed; conditions: 102 kPa, Liquid, Standard Abbe refractometry

C[Si]1(CCC(F)(F)F)O[Si](C)(CCC(F)(F)F)O[Si](C)(CCC(F)(F)F)O1 (stereo not drawn)
Conditions | mass density, 308.15 K [kg/m3] | mass density, 313.15 K [kg/m3] | mass density, 318.15 K [kg/m3] | mass density, 323.15 K [kg/m3] | refractive index, 308.15 K | refractive index, 313.15 K | refractive index, 318.15 K | refractive index, 323.15 K
[1] | 1236.63 | 1230.05 | 1223.55 | 1216.99 | – | – | – | –
[2] | – | – | – | – | 1.36011 | 1.35808 | 1.35609 and 1.35608 | 1.35407

C[Si]1(CCC(F)(F)F)O[Si](C)(CCC(F)(F)F)O[Si](C)(CCC(F)(F)F)O1 (stereo not drawn) + CC(C)(C)c1ccccc1
x1 = 1
Conditions | mass density, 308.15 K [kg/m3] | mass density, 313.15 K [kg/m3] | mass density, 318.15 K [kg/m3] | mass density, 323.15 K [kg/m3] | refractive index, 308.15 K | refractive index, 313.15 K | refractive index, 318.15 K | refractive index, 323.15 K
[3] | 1236.63 | 1230.05 | 1223.55 | 1216.99 | – | – | – | –
[4] | – | – | – | – | 1.36011 | 1.35808 | 1.35609 | 1.35407

CC(C)(C)c1ccccc1 [(1,1-dimethylethyl)benzene]
Conditions | mass density, 298.15 K [kg/m3] | mass density, 308.15 K [kg/m3] | mass density, 313.15 K [kg/m3] | mass density, 318.15 K [kg/m3] | mass density, 323.15 K [kg/m3] | refractive index, 298.15 K | refractive index, 308.15 K | refractive index, 313.15 K | refractive index, 318.15 K | refractive index, 323.15 K
[1] | 862.28 | 854.12 | 849.98 | 845.87 | 841.72 | – | – | – | – | –
[2] | – | – | – | – | – | 1.49009 | 1.48509 | 1.48256 | 1.48007 | 1.47754

COc1ccccc1 [anisole]
Conditions | mass density, 298.15 K [kg/m3] | mass density, 308.15 K [kg/m3] | mass density, 313.15 K [kg/m3] | mass density, 318.15 K [kg/m3] | mass density, 323.15 K [kg/m3] | refractive index, 298.15 K | refractive index, 308.15 K | refractive index, 313.15 K | refractive index, 318.15 K | refractive index, 323.15 K
[1] | 989.32 | 980.04 | 975.25 | 970.52 | 965.73 | – | – | – | – | –
[2] | – | – | – | – | – | 1.5146 | 1.50865 | 1.50604 | 1.50341 | 1.50073

COc1ccccc1 [anisole] + C[Si]1(CCC(F)(F)F)O[Si](C)(CCC(F)(F)F)O[Si](C)(CCC(F)(F)F)O1
x2 = 0
Conditions | mass density, 308.15 K [kg/m3] | mass density, 313.15 K [kg/m3] | mass density, 318.15 K [kg/m3] | mass density, 323.15 K [kg/m3] | refractive index, 308.15 K | refractive index, 313.15 K | refractive index, 318.15 K | refractive index, 323.15 K
[3] | 980.04 | 975.25 | 970.52 | 965.73 | – | – | – | –
[4] | – | – | – | – | 1.50865 | 1.50604 | 1.50341 | 1.50073

CCc1ccccc1 [ethylbenzene]
Conditions | mass density, [1] [kg/m3] | refractive index, [2]
298.15 K | 862.58 | 1.49301
303.15 K | – | 1.4903
308.15 K | 853.71 | 1.4876
313.15 K | 849.29 | 1.48491
318.15 K | 844.7 | 1.48217
323.15 K | 840.28 | 1.47944

CCc1ccccc1 [ethylbenzene] + C[Si]1(CCC(F)(F)F)O[Si](C)(CCC(F)(F)F)O[Si](C)(CCC(F)(F)F)O1
x2 = 0
Conditions | mass density, 308.15 K [kg/m3] | mass density, 313.15 K [kg/m3] | mass density, 318.15 K [kg/m3] | mass density, 323.15 K [kg/m3] | refractive index, 308.15 K | refractive index, 313.15 K | refractive index, 318.15 K | refractive index, 323.15 K
[3] | 853.71 | 849.29 | 844.7 | 840.28 | – | – | – | –
[4] | – | – | – | – | 1.4876 | 1.48491 | 1.48217 | 1.47944

O=[N+]([O-])c1ccccc1 [nitrobenzene]
Conditions | mass density, [1] [kg/m3] | refractive index, [2]
298.15 K | 1198.2 | 1.54992
303.15 K | 1193.25 | 1.54746
308.15 K | 1188.17 | 1.545
313.15 K | 1183.21 | 1.5425
318.15 K | 1178.24 | 1.54005
323.15 K | 1173.26 | 1.53757

O=[N+]([O-])c1ccccc1 [nitrobenzene] + C[Si]1(CCC(F)(F)F)O[Si](C)(CCC(F)(F)F)O[Si](C)(CCC(F)(F)F)O1
x2 = 0
Conditions | mass density, 308.15 K [kg/m3] | mass density, 313.15 K [kg/m3] | mass density, 318.15 K [kg/m3] | mass density, 323.15 K [kg/m3] | refractive index, 308.15 K | refractive index, 313.15 K | refractive index, 318.15 K | refractive index, 323.15 K
[3] | 1188.17 | 1183.21 | 1178.24 | 1173.26 | – | – | – | –
[4] | – | – | – | – | 1.545 | 1.5425 | 1.54005 | 1.53757
